In US10301314B2, “Compounds and methods for the prevention and treatment of tumor metastasis and tumorigenesis” (The United States of America, as represented by the …, priority 2011, dated 2019):
Read-outs that look alike come from different tables or passages of the source.

Assays:
[1] = test system: PC3M cell line that stably expresses GFP-PTB to mark PNCs; test: High content assay for PNC detection (reduction of PNC prevalence); format: cell-based, human; conditions: Homo sapiens, PC-3M, PC3M GFP-PTB cells; for AC50: Table 3; for IC50: Table 4, 16 hrs incubation
[2] = test system: PC3M cells; test: Tumor cell migration/invasion assay through 3D fibrillar collagen (Iuvo Single Microchannel Plate); format: cell-based; conditions: Homo sapiens, PC-3M, 120 h, 5 days
Experimental: High-content tumor cell migration assays in 3-dimensional extracellular matrices are powerful tools for modeling and understanding the biology of this critical step in the process of metastasis. However, most of the available methods are not amenable to the throughput required by studies of comparative pharmacology or small scale screening. For this reason, compounds were tested in BellBrook Labs™ automated high-content tumor cell invasion assays. A standard screening-sized plate with an array of embedded microchannels was designed and constructed from common thermoplastics.
PC3M cells were tested for invasion through 3D fibrillar collagen in the luvo Single Microchannel Plate, in the presence of varying levels of test compounds. Channels were prefilled with 820 nL of 3-dimensional type I collagen at 1 mg/mL, through the input port. Following gelation, 2,000 PC3M cells were seeded into the output port using growth media (RPMI+10% FBS with antibiotics) in a volume of 5 μL. Cells were incubated in a 37° C. incubator inside a humidified container to control evaporation (Bioassay dish, Corning). Media, including test compounds, was changed daily for 5 days. At the end of the assay, cells were fixed and stained with Hoechst 33342, then imaged with 4× objective under epifluorescence. Under these conditions, cells across the 140 μm height range of the microchannel can be reliably identified. Test compounds were serially diluted by a factor of 3 to produce 10 concentrations ranging from 50 or 100 μM to 2.5 nM. All assays were conducted in the presence of 0.1% DMSO. Four replicates were performed for all test concentrations. Each plate had 4 dose response curves, as well as 16 channels with no compound and 16 channels with 50 μM blebbistatin (positive control). Analysis was done by automatically cropping each image at the right edge of the channel and counting cells via the ‘count nuclei’ function on Metamorph (Molecular Devices). Non-linear regression analysis was performed with GraphPad Prism.

[3] = test system: PC3M reporter cell line stably expressing the PTB-GFP; test: ATP quantitation assay (ATPLite); format: cell-based, human; conditions: Homo sapiens, PC-3M, Table 4, PC3M cells, 24 hrs incubation
[4] = test system: PC3M cells; test: Soft agar colony formation assay (anchorage independent growth); format: cell-based, human; conditions: after 14 days; 3.8, 18.6 nM
Experimental: Compound 2 was tested for its ability to affect anchorage independent growth in a soft agar assay, a stringent method to detect malignant transformation of cells in vitro. […] The left hand side of FIG. 1 illustrates a histogram representing the number and size of PC3M soft agar colonies after 14 days of treatment with compound 2 at two different concentrations. A clear reduction of the number of colonies of PC3M cells was observed, particularly at a compound concentration of 18.6 nM. The right hand side of FIG. 1 illustrates two representative images taken at two different regions of the soft agar medium after treatment with DMSO (vehicle) (top row), compound 2 at 3.8 nM (middle row), and compound 2 at 18.6 nM (bottom row).

[5] = PC3M cells in output port, read-out: Proliferation output port IC50
[6] = PC3M cells, 3D type I collagen, read-out: Invasion cell # IC50

IC50 [1] [µM] | IC50 [2, 5] [µM] | IC50 [2, 6] [µM] | IC50 [3] [µM] | Compound | AC50 [1] [µM] | cell viability in soft agar assay [4] | number of PC3M soft agar colonies [4]
0.03 | 5.01 | 3.16 | 152 | N=c1c2c(-c3ccccc3)c(-c3ccccc3)n(Cc3ccccc3)c2ncn1C1CCOCC1 [Compound 1] | 0.09 |  | 
0.024 | 3.98 | 3.16 | 19.2 | N=c1c2c(-c3ccccc3)c(-c3ccccc3)n(Cc3ccccc3)c2ncn1[C@H]1CC[C@H](O)CC1 [Compound 2, trans-4-(7-Benzyl-4-imino-5,6-diphenyl-4,7-dihydro-3H-pyrrolo[2,3-d]pyrimidin-3-yl)cyclohexanol] | 0.4 | no impact on cell viability | dose dependent reduction in the number of colonies
